Test results reported in PubChem BioAssay (NCI).
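In this assay, cells in 96-well plates receive the compound at five concentrations for 48 hours. Endpoints are linearly interpolated between the surrounding concentrations. GI50 marks 50% less growth. TGI marks complete inhibition of growth.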

Tests used:
Experiment in all cases: DTP human tumour cell line panel, 48 h
[1] = system: SK-MEL-2 melanoma
[2] = system: NCI-H460 lung
[3] = system: SNB-75 CNS
[4] = system: U251 CNS
[5] = system: K-562 leukemia
[6] = system: LOX IMVI melanoma
[7] = system: SK-MEL-28 melanoma
[8] = system: HCT-116 colon
[9] = system: OVCAR-4 ovarian
[10] = system: RPMI-8226 leukemia

SMILES: COc1cc(O)c(C(C)=O)c(O)c1
- TGI [1]: > 100 µM
- TGI [2]: > 100 µM
- TGI [3]: > 100 µM
- TGI [4]: > 100 µM
- TGI [5]: > 100 µM
- TGI [6]: > 100 µM
- TGI [7]: > 100 µM
- TGI [8]: > 100 µM
- TGI [9]: > 100 µM

SMILES: CCCCCCCCCCCCCCCCS(=O)(=O)c1ccc(NN)cc1
- TGI [1]: > 10 µM
- TGI [2]: > 10 µM
- TGI [4]: > 10 µM
- TGI [5]: > 10 µM
- TGI [10]: > 10 µM
- TGI [6]: > 10 µM
- TGI [7]: > 10 µM
- TGI [8]: > 10 µM
- TGI [9]: > 10 µM

SMILES: Cc1cc(=O)oc2cc(OCCn3c(C)nn(-c4ccc(Cl)cc4)c3=O)ccc12
- GI50 [1]: 18.2 µM
- TGI [1]: > 100 µM
- GI50 [2]: 2.8 µM
- TGI [2]: > 100 µM
- GI50 [3]: 2.22 µM
- TGI [3]: 15.1 µM
- GI50 [4]: 4.18 µM
- TGI [4]: 72.3 µM
- GI50 [5]: 1.29 µM
- TGI [5]: > 100 µM
- GI50 [10]: 11 µM
- TGI [10]: > 100 µM
- GI50 [6]: 4.83 µM
- TGI [6]: > 100 µM
- GI50 [7]: 3.13 µM
- TGI [7]: > 100 µM
- GI50 [8]: 3.57 µM
- TGI [8]: > 100 µM

SMILES: COc1ccc(C2ONC3=NCCN32)cc1 (stereo not given)
- GI50 [1]: > 100 µM
- TGI [1]: > 100 µM
- GI50 [2]: 50.8 µM
- TGI [2]: > 100 µM
- GI50 [3]: > 100 µM
- TGI [3]: > 100 µM
- GI50 [4]: 45 µM
- TGI [4]: > 100 µM
- GI50 [5]: 38.3 µM
- TGI [5]: > 100 µM
- GI50 [6]: 14.4 µM
- TGI [6]: 47.1 µM
- GI50 [7]: > 100 µM
- TGI [7]: > 100 µM
- GI50 [8]: 40.4 µM
- TGI [8]: > 100 µM
- GI50 [9]: > 100 µM
- TGI [9]: > 100 µM

SMILES: CCCn1cnc2c(SCc3ccccc3)nc(N)nc21
- GI50 [2]: 42.2 µM
- TGI [2]: > 100 µM
- GI50 [3]: > 100 µM
- TGI [3]: > 100 µM
- GI50 [4]: 41.4 µM
- TGI [4]: > 100 µM
- GI50 [5]: 56.8 µM
- TGI [5]: > 100 µM
- GI50 [10]: 41.6 µM
- TGI [10]: > 100 µM
- GI50 [6]: 98.9 µM
- TGI [6]: > 100 µM
- GI50 [7]: > 100 µM
- TGI [7]: > 100 µM
- GI50 [8]: 63 µM
- TGI [8]: > 100 µM

SMILES: CCN(CC)CCOc1ccc(/C=C2\CC3C4CC=C5C[C@@H](OC(C)=O)CC[C@]5(C)C4CC[C@]3(C)C2=O)cc1OC (stereo not given in full)
- GI50 [1]: 5.1 µM
- TGI [1]: > 100 µM
- GI50 [3]: 20.5 µM
- TGI [3]: 58.1 µM
- GI50 [4]: 11.4 µM
- TGI [4]: 25.8 µM
- GI50 [5]: 1.29 µM
- TGI [5]: 23.6 µM
- GI50 [10]: 1.71 µM
- TGI [10]: 4.63 µM
- GI50 [8]: 1.92 µM
- TGI [8]: 5.61 µM
- GI50 [9]: 20.9 µM
- TGI [9]: > 100 µM

SMILES: COC(=O)c1cc2c3c(ccc2[nH]1)N(C(=O)c1cc2c4c(ccc2[nH]1)N(C(=O)c1cc2c5c(ccc2[nH]1)N(C(N)=O)CC5)CC4)CC3
- TGI [1]: > 24.4 µM
- TGI [2]: > 100 µM
- TGI [4]: > 21.9 µM
- TGI [5]: > 100 µM
- TGI [10]: > 100 µM
- TGI [6]: > 34 µM
- TGI [7]: > 100 µM
- TGI [8]: > 100 µM
- TGI [9]: > 100 µM

SMILES: c1cnc2[nH]cc(-c3csc(-c4cn(CCCN5CCCCC5)c5ccccc45)n3)c2c1
- GI50 [1]: 2.04 µM
- TGI [1]: 4.24 µM
- GI50 [3]: 1.21 µM
- TGI [3]: 2.84 µM
- GI50 [4]: 1.8 µM
- TGI [4]: 3.28 µM
- GI50 [5]: 1.74 µM
- TGI [5]: 3.52 µM
- GI50 [10]: 2.08 µM
- TGI [10]: 4.63 µM
- GI50 [9]: 1.82 µM
- TGI [9]: 4.19 µM

SMILES: O=C(/C=C/c1cn(-c2ccccc2)nc1-c1ccc([N+](=O)[O-])cc1)c1ccc(Cl)cc1
- GI50 [1]: 5.03 µM
- TGI [1]: 23 µM
- GI50 [3]: 1.65 µM
- TGI [3]: 4.84 µM
- GI50 [5]: 0.0883 µM
- TGI [5]: 2.73 µM
- GI50 [8]: 2.42 µM
- TGI [8]: > 100 µM

SMILES: COc1ccc(/C=C/C(=O)C(C)(C)Br)cc1
- TGI [1]: 27.5 µM
- TGI [2]: 48 µM
- TGI [4]: 28.6 µM
- TGI [5]: > 100 µM
- TGI [10]: 14.6 µM
- TGI [6]: 23.3 µM
- TGI [8]: 9.83 µM

SMILES: c1ccc(OCCSCCCCCCCCCCSCCOc2ccccc2)cc1
- TGI [1]: > 100 µM
- TGI [2]: > 100 µM
- TGI [3]: > 100 µM
- TGI [4]: > 100 µM
- TGI [5]: > 100 µM
- TGI [10]: > 100 µM
- TGI [6]: > 100 µM
- TGI [7]: > 100 µM

SMILES: CCOC1=C2NC(Cc3ccc(F)cc3)=NC2C(=O)c2ccccc21 (stereo not given)
- TGI [1]: 44.2 µM
- TGI [2]: 52.4 µM
- TGI [3]: 55.1 µM
- TGI [4]: > 100 µM
- TGI [5]: > 100 µM
- TGI [10]: 37.8 µM
- TGI [6]: 71.4 µM
- TGI [7]: 67.8 µM

SMILES: CC1(C)C2CCC13C(=O)C1OC3(C2)C2C(=O)c3c(O)cccc3C(=O)C12 (stereo not given)
- GI50 [1]: 3.69 µM
- TGI [1]: > 100 µM
- GI50 [2]: 3.75 µM
- TGI [2]: 21.2 µM
- GI50 [3]: 7.28 µM
- TGI [3]: 22.3 µM
- GI50 [4]: 0.64 µM
- TGI [4]: 1.81 µM
- GI50 [5]: 0.703 µM
- TGI [5]: 1.79 µM
- GI50 [10]: 0.177 µM
- TGI [10]: 0.441 µM
- GI50 [7]: 3.58 µM
- TGI [7]: 21.1 µM
- GI50 [8]: 1.09 µM
- TGI [8]: 2.3 µM

SMILES: COc1ccccc1/C=C\C(=O)c1ccccc1
- GI50 [1]: 4.36 µM
- TGI [1]: 14.6 µM
- GI50 [2]: 5.75 µM
- TGI [2]: 18.4 µM
- GI50 [3]: 13.6 µM
- TGI [3]: 27 µM
- GI50 [4]: 4.25 µM
- TGI [4]: 16.8 µM
- GI50 [5]: 2.57 µM
- TGI [5]: 13.9 µM
- GI50 [10]: 2.8 µM
- TGI [10]: 24.7 µM
- GI50 [6]: 2.93 µM
- TGI [6]: 8.79 µM
- GI50 [8]: 3.4 µM
- TGI [8]: 11.6 µM
- GI50 [9]: 4.31 µM
- TGI [9]: 17.1 µM
